Test results: patent publication US9682976B2, “Protein kinase C inhibitors and uses thereof” (Rigel Pharmaceuticals, Inc., priority 2012, dated 2017)

These compounds were tested on PKC mediated IL-2 production (assay: IL-2 ELISA, human primary T cell, anti CD3+CD28+). Settings: Homo sapiens, T-cell, 24 h, human primary T cells stimulated with αCD3 and αCD28, 24 hours.
Format: cell-based
In short: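 IL-2 was quantified by ELISA in 24 h supernatants from primary human T cells given a 1 h compound pre-treatment at 37° C. These cells had been expanded from blood mononuclear cells on αCD3/αCD28 with IL-2, and the IL-2 was removed by washing. Stimulation used plate-bound αCD3 ([…]) plus αCD28 (5 μg/ml); the counter assay used PMA (0.5 ng/ml) with ionomycin (0.1 uM) instead.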

| SMILES | EC50 [µM] |
| --- | --- |
| Cn1nnn(-c2cc(Nc3ncc(F)c(N[C@@H]4C[C@@H]5CCCN5C(C)(C)C4)n3)c(F)cc2OCC(N)=O)c1=O [Compound 322, 2-(4-(4-((7R,8aS)-octahydro-5,5-dimethylindolizin-7-ylamino)-5-fluoropyrimidin-2-ylamino)-5-fluoro-2-(4,5-dihydro-4-methyl-5-oxotetrazol-1-yl)phenoxy)acetamide] | 0.1 to 0.5 |
| CC(C)OC(=O)COc1cc(F)c(Nc2ncc(F)c(N[C@@H]3C[C@@H]4CCCN4C(C)(C)C3)n2)cc1-n1nnn(C)c1=O [Compound 323, isopropyl 2-(4-(4-((7R,8aS)-octahydro-5,5-dimethylindolizin-7-ylamino)-5-fluoropyrimidin-2-ylamino)-5-fluoro-2-(4,5-dihydro-4-methyl-5-oxotetrazol-1-yl)phenoxy)acetate] | 1 to 10 |
| CC1(C)C[C@H](Nc2nc(Nc3ccc(N4CC(O)C4)c(C(F)(F)F)c3)ncc2F)C[C@@H]2CCCN21 [Compound 326, 1-(4-(4-((7R,8aS)-octahydro-5,5-dimethylindolizin-7-ylamino)-5-fluoropyrimidin-2-ylamino)-2-(trifluoromethyl)phenyl)azetidin-3-ol] | 0.1 to 0.5 |
| Cn1nnn(-c2cc(Nc3ncc(F)c(N[C@@H]4C[C@@H]5CCCN5C(C)(C)C4)n3)ccc2N2CC(O)C2)c1=O [Compound 328, 1-(5-(4-((7R,8aS)-octahydro-5,5-dimethylindolizin-7-ylamino)-5-fluoropyrimidin-2-ylamino)-2-(3-hydroxyazetidin-1-yl)phenyl)-4-methyl-1H-tetrazol-5(4H)-one] | 1 to 10 |

The remaining lines, values ahead:

| EC50 [µM] | SMILES |
| --- | --- |
| 0.5 to 1 | CC1(C)C[C@H](Nc2nc(Nc3ccc(N4CC(C(N)=O)C4)c(C(F)(F)F)c3)ncc2F)C[C@@H]2CCCN21 [Compound 324, 1-(4-(4-((7R,8aS)-octahydro-5,5-dimethylindolizin-7-ylamino)-5-fluoropyrimidin-2-ylamino)-2-(trifluoromethyl)phenyl)azetidine-3-carboxamide] |
| 0.5 to 1 | CC1(C)C[C@H](Nc2nc(Nc3ccc(NCC(CCl)C(N)=O)c(C(F)(F)F)c3)ncc2F)C[C@@H]2CCCN21 (stereo partly drawn) [Compound 325, 1-(4-(4-((7R,8aS)-octahydro-5,5-dimethylindolizin-7-ylamino)-5-fluoropyrimidin-2-ylamino)-24(2-trifluoromethylphenylamino)methyl)-3-chloropropanamide] |
| 0.5 to 1 | CNC(=O)c1ccc(Nc2ncc(F)c(N[C@@H]3C[C@@H]4CCCN4C(C)(C)C3)n2)cc1Cl [Compound 327, 4-(4-((7R,8aS)-octahydro-5,5-dimethylindolizin-7-ylamino)-5-fluoropyrimidin-2-ylamino)-2-chloro-N-methylbenzamide] |
